Measurements as given in publication PMC9728581 (Frontiers in Pharmacology, 2022).

Key:
[1] = Population pharmacokinetic (NONMEM) model of unbound teicoplanin in Chinese adult patients; type: in vivo, human
Protocol: The pregnant female patients, hemodialysis patients, disseminated intravascular coagulation patients, and continuous renal replacement therapy patients were excluded.
(§1) However, prescribed dosing regimens were at the discretion of treating physicians based on the severity of the patient’s disease and the standard dosing regimen was not always followed. The daily dose range of patients included in this study was 50–1,600 mg.
(§2) Blood samples were typically collected within 30 min to 1 h preceding the 4th dose and the 6th dose, and depending on the actual clinical situation, blood samples might be taken at other time for TDM during the treatment. The Plasma samples were placed in a Centrifree® ultrafiltration device and placed in a 37°C water bath for 30 min, followed by centrifugation at 37°C, 1,500 × g for 30 min, and the ultrafiltrate was directly used for the determination of unbound concentration by ultra-performance liquid chromatography-tandem mass spectrometry (UPLC-MS/MS) method. […] The average relative recovery ratio was 97.9%, and the matrix effect factor was 0.97. Details of blood handling, storage and measurement have been described previously ([Fu et al., 2020]).
The PopPK modeling was performed using NONMEM (non-linear mixed effects modeling, v7.2, Globomax Corp, United States), and Wings for NONMEM (v6.1, Nick Holford, University of Auckland, New Zealand) was used as an auxiliary software for NONMEM execution. R (v3.6.1, Saik Urien, U.R.C. Paris Centre, Hopital Tarnier, France) was used for exploratory data analysis, data assembly, and graphical presentation of modeling and simulation results.
The parameter estimation method for PopPK model was FOCEI (first order conditional estimation with η-ε interaction option). The inter-individual variability (IIV) of the parameters were estimated using exponential random effects. θi=θ∙e^ηi (5) Where θi is the estimated parameter value of the individual i, θ represents the typical population parameter, and ηi (IIV) is assumed to follow the normal distribution with mean of 0 and variance of ω^2 and was estimated during model fitting.
The additive, proportional, and mixed residual error models were compared separately, and finally the mixed residual error model was selected for data fitting.
Covariate modeling analysis was used to explore the source of variability.
The stepwise covariate modeling approach was used to establish the covariate model in this analysis. During the forward selection step, all covariates were added to the PK parameters in the base model one by one. Covariates were screened based on the changes in objective function values (OFV) and graphical evaluation. The covariate with a significant effect (p < 0.05, e.g., df = 1, ΔOFV ≥ 3.84) would be added to the basic model to build a full model. Based on the full model, the existing covariates were deleted one by one as the backward elimination step. For each deleted covariate, the increase in OFV should be ≥ 10.83 (p < 0.001, df = 1), otherwise, this covariate should be excluded from the final model.
Continuous covariates (e.g., WT) were added to the model according to the following equation. θi=θTV×(covi/covmedian)^θx (7) Where θi is the parameter value of the ith individual; θTV is the population typical value of PK parameters; covi is the covariate value of the ith individual; covmedian is the median value of this covariate; θx is the influence coefficient of the covariate on the parameters.
Categorical covariates (e.g., gender) were added to the model according to the following equations: θi=θTV+θx,cov=xl if Cov=Xl (8) θi=θTV if Cov=X0 (9) Where θx,cov=xl is the change in a parameter when covariate X is at level l compared with the reference level (0).
The performance and stability of the final model were estimated using non-parametric bootstrap. 1,000 datasets generated by random sampling were evaluated. […]

[2] = Unbound teicoplanin plasma concentration, ultrafiltration and UPLC-MS/MS; type: in vivo, human; settings: plasma ultrafiltrate (Centrifree, 37°C), 103 observations, 72 patients, daily dose 50–1,600 mg i.v.
Protocol: as §1, §2

[3] = system: serum albumin; settings: ref Gao et al., 2020; cited from earlier work
Protocol: In this study, the protein binding ratio was calculated as the average value of 92.5%.

[4] = ref Pauluzzi et al., 1987; cited from earlier work
Description: Previous studies have shown that adverse events inc ...

[5] = non-parametric bootstrap, 1,000 datasets

Q: With teicoplanin as the substance, how does the “θALB, bootstrap median” value [1, 5] read?
A: 1.55 g/L

Q: And the “θCL, bootstrap median” value [1, 5]?
A: 11.38 L/h

Q: What about the “θV, bootstrap median” value [1, 5] of the same substance?
A: 822 L

Q: What about the “θeGFR, bootstrap median” value [1, 5] of the same substance?
A: 0.501 mL/min

Q: What about the “θV, population typical value of the volume of distribution (NONMEM estimate)” value ([1]; unbound teicoplanin, one-compartment model, 72 patients, 103 observations, at ALB 32) of the same substance?
A: 811 L

Q: What about the “θCL, population typical value of clearance (NONMEM estimate)” value ([1]; unbound teicoplanin, one-compartment, first-order elimination, 72 Chinese adult patients, 103 observations, i.v. infusion, at eGFR 84) of the same substance?
A: 11.7 L/h

Q: What about the “Unbound teicoplanin concentrations, range” value [2] of the same substance?
A: 0.4 to 4.4 µg/mL

Q: And the “Unbound teicoplanin concentrations, mean ± SD” value ([2]; mostly trough, SD)?
A: 1.5 ± 0.9 µg/mL

Q: And the “bound to serum albumin (protein binding ratio)” value [3]?
A: 90%–95%

Q: And the “total Ctrough above which thrombocytopenia was more common” value [4]?
A: > 60 µg/mL
